In patent US20240140944A1, “NOVEL NAPHTHYRIDINONE DERIVATIVE HAVING INHIBITORY ACTIVITY AGAINST ECTONUCLEOTIDE PYROPHOSPHATASE-PHOSPHODIESTERASE AND USE THEREOF” (TXINNO BIOSCIENCE INC., priority 2020, published 2024):
Structures can show the parent of a compound that is named as a salt.

Experiments:
[1] = biological target: T1, human recombinant ENPP1 enzymes (Homo sapiens, UniProt P22413); assay: ENPP1 Enzyme Assay with cGAMP Substrate (AMP-Glo); type: biochemical; details: human recombinant ENPP1 3 ng/reaction, cGAMP 5 μM, 37° C. 90 minutes, average of two or more tests; read-out: Enzymatic activity IC50
T1 construct: purchased R & D systems
T1 sequence (P22413 1-925): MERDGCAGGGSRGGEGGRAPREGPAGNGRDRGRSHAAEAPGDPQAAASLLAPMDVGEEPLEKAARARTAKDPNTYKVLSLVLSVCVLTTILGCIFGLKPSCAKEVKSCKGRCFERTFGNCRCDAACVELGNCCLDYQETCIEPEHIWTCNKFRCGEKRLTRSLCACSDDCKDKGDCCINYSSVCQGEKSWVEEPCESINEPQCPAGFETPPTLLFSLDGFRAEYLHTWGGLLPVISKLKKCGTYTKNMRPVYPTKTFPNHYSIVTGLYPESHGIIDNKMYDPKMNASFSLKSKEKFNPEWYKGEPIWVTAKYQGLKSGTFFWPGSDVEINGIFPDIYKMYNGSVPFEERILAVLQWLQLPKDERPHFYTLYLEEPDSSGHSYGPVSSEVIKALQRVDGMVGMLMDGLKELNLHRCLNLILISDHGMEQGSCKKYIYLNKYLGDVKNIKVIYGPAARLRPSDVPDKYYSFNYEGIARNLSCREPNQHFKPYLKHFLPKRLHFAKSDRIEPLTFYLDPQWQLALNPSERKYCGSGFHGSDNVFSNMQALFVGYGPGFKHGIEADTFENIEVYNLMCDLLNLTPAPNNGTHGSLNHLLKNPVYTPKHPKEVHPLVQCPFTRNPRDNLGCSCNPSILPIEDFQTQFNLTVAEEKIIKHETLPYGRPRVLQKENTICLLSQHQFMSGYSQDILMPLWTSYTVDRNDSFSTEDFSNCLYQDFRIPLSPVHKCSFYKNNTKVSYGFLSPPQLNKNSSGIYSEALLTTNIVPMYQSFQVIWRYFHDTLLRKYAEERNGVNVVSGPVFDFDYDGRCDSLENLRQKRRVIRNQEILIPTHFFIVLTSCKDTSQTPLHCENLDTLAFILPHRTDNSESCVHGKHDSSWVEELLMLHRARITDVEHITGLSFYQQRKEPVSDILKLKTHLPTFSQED
Method: ENPP1 hydrolyzes nucleotides or nucleotide derivatives to produce nucleoside-5′-monophosphate and pyrophosphate. In addition, ENPP1 hydrolyzes 2′,3′-cGAMP to produce 5′-adenosine monophosphate (AMP) and 5′-guanosine monophosphate (GMP). AMP produced from the reaction is measured using the AMP-Glo® kit (Promega). The AMP-Glo® kit contains two reagents. The first reagent terminates the AMP-producing enzymatic reaction, removes ATP and converts the produced AMP into ADP. The second reagent converts ADP to ATP which is used to generate luminescence in the luciferase reaction. The amount of luminescence measured is proportional to the amount of AMP produced by ENPP1.
The final reaction mixture contains 50 mM Tris (pH 8.5) buffer, 250 mM NaCl, 0.5 mM CaCl2), 1 μM ZnCl2, 5% glycerol and 1% DMSO. Serially diluted ENPP1 inhibitors (typically in the range of 10 μM to 0.5 nM) were pre-stored with human recombinant ENPP1 enzymes (R & D systems) at 3 ng/reaction and room temperature (RT) for 5 to 10 minutes. The reaction was initiated by addition of cGAMP (at a final concentration of 5 μM) and reacted at 37° C. for 90 minutes. At the end of the reaction, 10 μl of the AMP-Glo first reagent was added to stop the reaction and the result was stored at room temperature for 1 hour. After storage, 20 μl of an AMP detection solution (a mixture of AMP-Glo II reagent and Kinase-Glo at a ratio of 1:100) was added and stored at room temperature for 1 hour. Luminescence signals were measured using a Victor® plate reader (Perkin Elmer). The maximal activity control (containing enzymes and substrates in the presence of 1% DMSO; MAX) and the minimal activity control (containing substrates and 1% DMSO; MIN) were evaluated simultaneously. In each experiment, serially diluted reference ENPP1 inhibitors were tested as well. IC50, indicating % residual activity versus compound concentration was determined by fitting inhibition curves using the 3-parameter analysis of GraphPad Prism® software. Serially diluted samples of one compound were tested two or more times and an average IC50 of each compound was calculated.

[2] = system: interferon regulatory factor 3 (IRF3) in HCT116-Dual cells; assay: HCT116-Dual Cell Luciferase Assay (ISG54 promoter, IRF3 activity); type: cell-based; details: ENPP1 inhibitor usually 10 μM plus cGAMP 10 μM, 48 hours, Lucia luciferase
Excerpt: HCT116-Dual™ cells express genes encoding luciferase secreted under the control of the interferon-stimulated gene 54 (ISG54) promoter along with five interferon-stimulated response elements. The HCT116-Dual™ cell line was used to measure and monitor the activity of interferon regulatory factor 3 (IRF3), which induces production of type I interferon and relates to downstream signaling, and Lucia secreted in the culture medium was used to generate luminescence in a luciferase reaction.
HCT116-Dual™ cells were cultured at 2×10^4 cells/well (93.4 μL) in a 96-well plate for one day in a DMEM medium containing 10% FBS and 25 mM HEPES (pH 7.2-7.5). The cells were treated with 3.3 μL of ENPP1 inhibitor (usually 10 μM) and then 3.3 μL of cGAMP (10 μM) to set the final volume to 100 μL (The final fraction of DMSO was 0.1%). The cells treated with ENPP1 inhibitor and cGAMP were cultured at 37° C. for 48 hours and 50 μL of Quanti-Luc reaction solution was added to 20 μL of cell culture medium to measure luciferase activity. The increase in interferon regulatory factor 3 (IRF3) by the compound compared to cGAMP was determined as fold.

Compound: Cl.NS(=O)(=O)N(Cc1ccc(-c2ccnc3[nH]c(=O)ccc23)c(F)c1)C1CC1 [Example 58, N-cyclopropyl-N-(3-fluoro-4-(7-oxo-7,8-dihydro-1,8-naphthyridin-4-yl)benzyl)sulfamide hydrochloride]
- IC50 [1]: < 1 µM
- Cellular activity: increase in IRF3 by the compound compared to cGAMP, as fold [2]: B (1< Fold <2)

Compound: C[C@@H](N)c1ccc(-c2ccnc3[nH]c(=O)ccc23)cc1.Cl [Example 15, (R)-5-(4-(1-aminoethyl)phenyl)-1,8-naphthyridin-2(1H)-one hydrochloride]
- IC50 [1]: < 1 µM
- Cellular activity: increase in IRF3 by the compound compared to cGAMP, as fold [2]: B (1< Fold <2)

Compound: CCN(Cc1ccc(-c2ccnc3[nH]c(=O)ccc23)cc1F)S(N)(=O)=O.Cl [Example 53, N-ethyl-N-(2-fluoro-4-(7-oxo-7,8-dihydro-1,8-naphthyridin-4-yl)benzyl)sulfamide hydrochloride]
- IC50 [1]: < 1 µM
- Cellular activity: increase in IRF3 by the compound compared to cGAMP, as fold [2]: B (1< Fold <2)

Compound: Cl.O=c1ccc2c(-c3ccc(CNC4CC4)c(F)c3)ccnc2[nH]1 [Example 25, 5-(4-((cyclopropylamino)methyl)-3-fluorophenyl)-1,8-naphthyridin-2(1H)-one hydrochloride]
- IC50 [1]: 1 to 10 µM
- Cellular activity: increase in IRF3 by the compound compared to cGAMP, as fold [2]: A (>2)

Compound: NS(=O)(=O)NCc1cccc(-c2ccnc3c2CCC(=O)N3)c1 [Example 140, N-(3-(7-oxo-5,6,7,8-tetrahydro-1,8-naphthyridin-4-yl)benzyl)sulfamide]
- IC50 [1]: < 1 µM
- Cellular activity: increase in IRF3 by the compound compared to cGAMP, as fold [2]: B (1< Fold <2)

Compound: Cl.NS(=O)(=O)N(Cc1ccc(-c2ccnc3[nH]c(=O)ccc23)cc1F)C1CC1 [Example 54, N-cyclopropyl-N-(2-fluoro-4-(7-oxo-7,8-dihydro-1,8-naphthyridin-4-yl)benzyl)sulfamide hydrochloride]
- IC50 [1]: < 1 µM
- Cellular activity: increase in IRF3 by the compound compared to cGAMP, as fold [2]: B (1< Fold <2)

Compound: NCCc1ccc(F)c(Nc2ccnc3[nH]c(=O)ccc23)c1 [Example 79, 5-((5-(2-aminoethyl)-2-fluorophenyl)amino)-1,8-naphthyridin-2(1H)-one dihydrochloride]
- IC50 [1]: 1 to 10 µM
- Cellular activity: increase in IRF3 by the compound compared to cGAMP, as fold [2]: B (1< Fold <2)

Compound: CC(NS(N)(=O)=O)c1ccc(-c2ccnc3[nH]c(=O)ccc23)cc1.Cl (stereo not drawn) [Example 45, N-(1-(4-(7-oxo-7,8-dihydro-1,8-naphthyridin-4-yl)phenyl)ethyl)sulfamide hydrochloride]
- IC50 [1]: < 1 µM
- Cellular activity: increase in IRF3 by the compound compared to cGAMP, as fold [2]: B (1< Fold <2)

Compound: CCNCc1ccc(-c2ccnc3[nH]c(=O)ccc23)cc1F.Cl [Example 24, 5-(4-((ethylamino)methyl)-3-fluorophenyl)-1,8-naphthyridin-2(1H)-one hydrochloride]
- IC50 [1]: > 10 µM
- Cellular activity: increase in IRF3 by the compound compared to cGAMP, as fold [2]: B (1< Fold <2)

Compound: 5-(7-oxo-5,6,7,8-tetrahydro-1,8-naphthyridin-4-yl)isoindoline-2-sulfamide hydrochloride [Example 143]
- Cellular activity: increase in IRF3 by the compound compared to cGAMP, as fold [2]: B (1< Fold <2)

Compound: NS(=O)(=O)NCc1ccc(-c2ccnc3[nH]c(=O)ccc23)cc1F [Example 41, N-(2-fluoro-4-(7-oxo-7,8-dihydro-1,8-naphthyridin-4-yl)benzyl)sulfamide]
- Cellular activity: increase in IRF3 by the compound compared to cGAMP, as fold [2]: B (1< Fold <2)

Compound: C[C@@H](NS(N)(=O)=O)c1ccc(-c2ccnc3[nH]c(=O)ccc23)cc1 [Example 46, (R)-(N-(1-(4-(7-oxo-7,8-dihydro-1,8-naphthyridin-4-yl)phenyl)ethyl)sulfamide hydrochloride]
- IC50 [1]: < 1 µM

Compound: NS(=O)(=O)NCCC1CCN(c2ccnc3[nH]c(=O)ccc23)CC1 [Example 125, N-(2-(1-(7-oxo-7,8-dihydro-1,8-naphthyridin-4-yl)piperidin-4-yl)ethyl)sulfamide]
- IC50 [1]: < 1 µM

Compound: O=c1ccc2c(-c3ccc(CNS(=O)(=O)c4cccs4)cc3)ccnc2[nH]1 [Example 70, N-(4-(7-oxo-7,8-dihydro-1,8-naphthyridin-4-yl)benzyl)thiophene-2-sulfonamide]
- IC50 [1]: < 1 µM

Compound: NCc1ccc(-c2ccnc3c2CCC(=O)N3)cc1 [Example 133, 5-(4-(aminomethyl)phenyl)-3,4-dihydro-1,8-naphthyridin-2(1H)-one hydrochloride]
- IC50 [1]: < 1 µM

Compound: NS(=O)(=O)NCCc1ccc(F)c(Nc2ccnc3[nH]c(=O)ccc23)c1 [Example 95, N-(4-fluoro-3-((7-oxo-7,8-dihydro-1,8-naphthyridin-4-yl)amino)phenethyl)sulfamide dihydrochloride]
- IC50 [1]: < 1 µM

Compound: NCc1ccc(Nc2ccnc3[nH]c(=O)ccc23)cc1 [Example 82, 5-((4-(aminomethyl)phenyl)amino)-1,8-naphthyridin-2(1H)-one dihydrochloride]
- IC50 [1]: < 1 µM

Compound: O=c1ccc2c(N3CCC4(CCNC4)CC3)ccnc2[nH]1 [Example 117, 5-(2,8-diazaspiro[4,5]decan-8-yl)-1,8-naphthyridin-2(1H)-one hydrochloride]
- IC50 [1]: 1 to 10 µM

Compound: Cl.Nc1ccc(F)c(-c2ccnc3[nH]c(=O)ccc23)c1 [Example 8]
- Cellular activity: increase in IRF3 by the compound compared to cGAMP, as fold [2]: B (1< Fold <2)

Compound: NS(=O)(=O)NCc1ccc(-c2ccnc3[nH]c(=O)ccc23)cc1 [Example 40, N-(4-(7-oxo-7,8-dihydro-1,8-naphthyridin-4-yl)benzyl)sulfamide]
- IC50 [1]: < 1 µM

Compound: NS(=O)(=O)Nc1cccc(Nc2ccnc3[nH]c(=O)ccc23)c1 [Example 88, N-(3-((7-oxo-7,8-dihydro-1,8-naphthyridin-4-yl)amino)phenyl)sulfamide dihydrochloride]
- IC50 [1]: < 1 µM

Compound: NS(=O)(=O)NCc1ccc(Nc2ccnc3[nH]c(=O)ccc23)cc1 [Example 98, N-(4-((7-oxo-7,8-dihydro-1,8-naphthyridin-4-yl)amino)benzyl)sulfamide dihydrochloride]
- IC50 [1]: 1 to 10 µM

Compound: CS(=O)(=O)NCc1cccc(-c2ccnc3c2CCC(=O)N3)c1 [Example 146, N-(3-(7-oxo-5,6,7,8-tetrahydro-1,8-naphthyridin-4-yl)benzyl)methanesulfonamide]
- IC50 [1]: 1 to 10 µM

Compound: C[C@H](c1ccc(-c2ccnc3[nH]c(=O)ccc23)cc1)N(C1CC1)S(N)(=O)=O [Example 60, (R)-(N-cyclopropyl-N-(1-(4-(7-oxo-7,8-dihydro-1,8-naphthyridin-4-yl)phenyl)ethyl)sulfamide hydrochloride]
- IC50 [1]: 1 to 10 µM
